Measured values published in ChEMBL document CHEMBL5260833, “An overview of quinazolines: Pharmacological significance and recent developments” (Eur J Med Chem, 2018).
Values after ≈ are worked out from the molar mass of the structure shown.

Tests used:
[1] = CNS toxicity in po dosed mouse assessed as depression in CNS; type: organism-based; settings: in vivo
Mus musculus = experiment: Analgesic activity in […] albino mouse at 20 mg/kg, po measured after 2 hrs by Tail-Flick technique relative to control; type: functional
[2] = tested on: Staphylococcus epidermidis; experiment: Antimicrobial activity against Staphylococcus epidermidis assessed as bacterial growth inhibition; type: functional
Proteus mirabilis = experiment: Antimicrobial activity against Proteus mirabilis assessed as bacterial growth inhibition; type: functional
Pseudomonas aeruginosa = experiment: Antimicrobial activity against Pseudomonas aeruginosa assessed as bacterial growth inhibition; type: functional
Citrobacter freundii = experiment: Antimicrobial activity against Citrobacter freundii assessed as bacterial growth inhibition; type: functional
Mycolicibacterium phlei = experiment: Antimicrobial activity against Mycobacterium phlei assessed as bacterial growth inhibition; type: functional
Candida albicans = experiment: Antimicrobial activity against Candida albicans assessed as bacterial growth inhibition; type: functional
Micrococcus luteus = experiment: Antimicrobial activity against Micrococcus luteus assessed as bacterial growth inhibition; type: functional
Proteus vulgaris = experiment: Antimicrobial activity against Proteus vulgaris assessed as bacterial growth inhibition; type: functional
Escherichia coli [3] = experiment: Antimicrobial activity against Escherichia coli assessed as bacterial growth inhibition; type: functional
Staphylococcus aureus [4] = experiment: Antimicrobial activity against Staphylococcus aureus assessed as bacterial growth inhibition; type: functional
[5] = tested on: Staphylococcus saprophyticus; experiment: Antimicrobial activity against Staphylococcus saprophyticus assessed as bacterial growth inhibition; type: functional
Klebsiella oxytoca = experiment: Antimicrobial activity against Klebsiella oxytoca assessed as bacterial growth inhibition; type: functional
Bacillus subtilis = experiment: Antimicrobial activity against Bacillus subtilis assessed as bacterial growth inhibition; type: functional
Homo sapiens [6] = species: Homo sapiens; experiment: Immunosuppressive activity in human B cell; type: functional, organism-based
Homo sapiens [7] = species: Homo sapiens; experiment: Immunosuppressive activity in human T cell; type: functional, organism-based
Staphylococcus aureus [8] = experiment: Antibacterial activity against Staphylococcus aureus assessed as zone of inhibition at 100 ppm; type: functional; settings: read-out: IZ
Escherichia coli [9] = experiment: Antibacterial activity against Escherichia coli assessed as zone of inhibition at 100 ppm; type: functional; settings: read-out: IZ

CC(=O)Nc1ccc2nc(CO)n(-c3ccccc3C)c(=O)c2c1
LD50 [1]: > 1000 mg/kg

CC/C(C)=N/n1c(S)nc2sc3c(c2c1=O)CCCC3
Activity (Mus musculus): 72%

CCCCc1nc2ccccc2c(=O)n1NC(=S)N1CCCC1
Activity (Mus musculus): 73%

CCCCNC(=O)Oc1ccc(-n2c(/C=C/c3ccc(Cl)cc3)nc3cc(Cl)ccc3c2=O)cc1
MIC [2]: 125 µg/mL (≈ 246 µM)
MIC (Proteus mirabilis): 125 µg/mL (≈ 246 µM)
MIC (Pseudomonas aeruginosa): 125 µg/mL (≈ 246 µM)
MIC (Citrobacter freundii): 125 µg/mL (≈ 246 µM)
MIC (Mycolicibacterium phlei): 125 µg/mL (≈ 246 µM)
MIC (Candida albicans): 125 µg/mL (≈ 246 µM)
MIC (Micrococcus luteus): 125 µg/mL (≈ 246 µM)
MIC (Proteus vulgaris): 125 µg/mL (≈ 246 µM)
MIC (Escherichia coli [3]): 125 µg/mL (≈ 246 µM)
MIC (Staphylococcus aureus [4]): 125 µg/mL (≈ 246 µM)
MIC [5]: 125 µg/mL (≈ 246 µM)
MIC (Klebsiella oxytoca): 125 µg/mL (≈ 246 µM)
MIC (Bacillus subtilis): 125 µg/mL (≈ 246 µM)

O=c1c2ccc([N+](=O)[O-])cc2nc(/C=C/c2ccc(Cl)cc2)n1-c1ccc(OCC2CO2)cc1 (configuration not stated)
MIC [2]: 125 µg/mL (≈ 263 µM)
MIC (Proteus mirabilis): 125 µg/mL (≈ 263 µM)
MIC (Pseudomonas aeruginosa): 125 µg/mL (≈ 263 µM)
MIC (Citrobacter freundii): 125 µg/mL (≈ 263 µM)
MIC (Mycolicibacterium phlei): 125 µg/mL (≈ 263 µM)
MIC (Candida albicans): 125 µg/mL (≈ 263 µM)
MIC (Micrococcus luteus): 125 µg/mL (≈ 263 µM)
MIC (Proteus vulgaris): 125 µg/mL (≈ 263 µM)
MIC (Escherichia coli [3]): 125 µg/mL (≈ 263 µM)
MIC (Staphylococcus aureus [4]): 125 µg/mL (≈ 263 µM)
MIC [5]: 125 µg/mL (≈ 263 µM)
MIC (Klebsiella oxytoca): 125 µg/mL (≈ 263 µM)
MIC (Bacillus subtilis): 125 µg/mL (≈ 263 µM)

O=c1c2ccc(Cl)cc2nc(/C=C/c2ccc(Cl)cc2)n1-c1ccc(O)cc1
MIC [2]: 125 µg/mL (≈ 305 µM)
MIC (Proteus mirabilis): 125 µg/mL (≈ 305 µM)
MIC (Pseudomonas aeruginosa): 125 µg/mL (≈ 305 µM)
MIC (Citrobacter freundii): 125 µg/mL (≈ 305 µM)
MIC (Mycolicibacterium phlei): 125 µg/mL (≈ 305 µM)
MIC (Candida albicans): 125 µg/mL (≈ 305 µM)
MIC (Micrococcus luteus): 125 µg/mL (≈ 305 µM)
MIC (Proteus vulgaris): 125 µg/mL (≈ 305 µM)
MIC (Escherichia coli [3]): 125 µg/mL (≈ 305 µM)
MIC (Staphylococcus aureus [4]): 125 µg/mL (≈ 305 µM)
MIC [5]: 125 µg/mL (≈ 305 µM)
MIC (Klebsiella oxytoca): 125 µg/mL (≈ 305 µM)
MIC (Bacillus subtilis): 125 µg/mL (≈ 305 µM)

CN(Cc1cnc2nc(N)nc(N)c2n1)c1ccc(C(=O)N[C@@H](CCC(=O)O)C(=O)O)cc1 [METHOTREXATE]
IC50 (Homo sapiens [6]): 27.5 nM
IC50 (Homo sapiens [7]): 13.4 nM

Cc1nc2ccc(Br)cc2c(=O)n1/N=C/c1cc(Cl)cc(Cl)c1O
zone of inhibition at 100 µg/mL (Staphylococcus aureus [8]): 16 mm
zone of inhibition at 100 µg/mL (Escherichia coli [9]): 14 mm

Nc1nc(N)c2c(CCCc3ccc(C(=O)N[C@@H](C[C@@H](F)C(=O)O)C(=O)O)cc3)c[nH]c2n1
IC50 (Homo sapiens [6]): 2930 nM
IC50 (Homo sapiens [7]): 1410 nM

Cc1ccccc1-n1c(CF)nc2ccc(NC(=O)CO)cc2c1=O
LD50 [1]: > 1000 mg/kg

CCN(CC)C(=S)Nn1c(SC)nc2ccccc2c1=O
Activity (Mus musculus): 67%

Cc1nc2ccc(CN(C)c3ccc(C(=O)N[C@@H](C[C@@H](F)C(=O)O)C(=O)O)s3)cc2c(=O)[nH]1
IC50 (Homo sapiens [6]): 8.08 nM
IC50 (Homo sapiens [7]): 5.67 nM

COc1cc(/C=N/n2c(C)nc3ccc(I)cc3c2=O)cc(Br)c1O
zone of inhibition at 100 µg/mL (Staphylococcus aureus [8]): 16 mm
zone of inhibition at 100 µg/mL (Escherichia coli [9]): 14 mm

COc1cc(/C=N/n2c(C)nc3ccc(Br)cc3c2=O)cc(Br)c1O
zone of inhibition at 100 µg/mL (Staphylococcus aureus [8]): 16 mm
zone of inhibition at 100 µg/mL (Escherichia coli [9]): 14 mm

CC(=O)Nc1ccc2nc(CS(C)(=O)=O)n(-c3ccccc3C)c(=O)c2c1
LD50 [1]: > 1000 mg/kg

C#CCN(Cc1ccc2nc(C)[nH]c(=O)c2c1)c1ccc(C(=O)N[C@@H](C[C@H](F)C(=O)O)C(=O)O)cc1
IC50 (Homo sapiens [6]): 8.08 nM
IC50 (Homo sapiens [7]): 5.67 nM

Cc1nc2ccc(I)cc2c(=O)n1/N=C/c1cc(Cl)cc(Cl)c1O
zone of inhibition at 100 µg/mL (Staphylococcus aureus [8]): 16 mm
zone of inhibition at 100 µg/mL (Escherichia coli [9]): 14 mm

O=c1c2ccc(Cl)cc2nc(/C=C/c2ccc(Cl)cc2)n1-c1ccc(OCC(O)CN2CCCCC2)cc1 (configuration not stated)
MIC [2]: 125 µg/mL (≈ 227 µM)
MIC (Proteus mirabilis): 125 µg/mL (≈ 227 µM)
MIC (Pseudomonas aeruginosa): 125 µg/mL (≈ 227 µM)
MIC (Citrobacter freundii): 125 µg/mL (≈ 227 µM)
MIC (Mycolicibacterium phlei): 125 µg/mL (≈ 227 µM)
MIC (Candida albicans): 125 µg/mL (≈ 227 µM)
MIC (Micrococcus luteus): 125 µg/mL (≈ 227 µM)
MIC (Proteus vulgaris): 125 µg/mL (≈ 227 µM)
MIC (Escherichia coli [3]): 125 µg/mL (≈ 227 µM)
MIC (Staphylococcus aureus [4]): 125 µg/mL (≈ 227 µM)
MIC [5]: 125 µg/mL (≈ 227 µM)
MIC (Klebsiella oxytoca): 125 µg/mL (≈ 227 µM)
MIC (Bacillus subtilis): 125 µg/mL (≈ 227 µM)

COc1cc(/C=N/n2c(C)nc3ccc(Br)cc3c2=O)cc(I)c1O
zone of inhibition at 100 µg/mL (Staphylococcus aureus [8]): 16 mm
zone of inhibition at 100 µg/mL (Escherichia coli [9]): 14 mm

CC(=O)Nc1ccc2nc(CF)n(-c3ccccc3C)c(=O)c2c1
LD50 [1]: > 1000 mg/kg
